Here are results for 1 substance from patent US8236761B2, “C-Met receptor regulation by angiotensin IV (AT4) receptor ligands” (Washington State University Research Foundation, priority 2006, dated 2012).

Non-standard residues stand in square brackets, D forms with d. No end group written: not given here. Nle = CCCC[C@H](N)C(=O)O

Assay [1] deals with +SA murine mammary cancer cells. Nature of the assay: Angiogenesis-related gene microarray of +SA murine mammary tumors. Type of assay: in vivo, Balb/c mice. The note with it: 28 days intraperitoneal osmotic pump, 1 mg/kg/day. Here is the method:
Angiotensin-like factor Norleual (COMPOUND 2) was tested for its ability to modulate angiogenic genes in murine mammary tumors. Briefly, Balb/c mice grafted with +SA murine mammary cancer cells were treated with Compound 2. After 28 days of intraperitoneal administration via an osmotic pump (at a dose of 1 mg/kg/day), primary tumors were harvested and RNA was collected. Transcriptional activities of 96 angiogenesis-related genes were assessed using gene microarrays.

For the next assay, the system named is B16-F10 melanoma cells. Nature of the assay: In vivo pulmonary B16-F10 melanoma metastasis model. Further details: species or system C57BL/6 mice. The note with it: tail vein inoculation, IP 50 μg/kg/day, fourteen days, melanin absorbance. Here is the method: (FIG. 13A) C57BL/6 mice were inoculated subcutaneously with B16-F10 cells. Control or Norleual-containing slow release Elvax pellets were implanted inter-muscularly. Tumors were measured with digital calipers and tumor volumes were calculated (n=6), error bars indicate ±SD. (FIG. 13B) 400,000 B16-F10 cells, treated in suspension with either Norleual at 10^−11 M or PBS as a vehicle control, were injected into the tail vein of C57BL/6 mice. Mice received IP injections of Norleual (50 μg/kg/day) or PBS vehicle control. After fourteen days, lungs were removed and the absorbance of melanin was used to quantify metastasis; bars show (left to right) graft recipients treated with vehicle only, Norelual treated graft recipients, and ungrafted age-matched control. Error bars indicate±SEM, with n=5 and *p<0.05. (FIG. 13C) Photo of representative lungs from vehicle-only treated (controls, “Norleal −”) and Norleual treated (“Norleual +”) grafted mice.
In vivo metastasis. Six to eight month old C57BL/6 mice were injected with 400 000 B16-F10 cells in 200 μl PBS by tail vein injection. Two to three weeks later, mice were anesthetized and lungs were perfused with PBS and removed. […] The supernate was transferred to a 96 well plate and melanin absorbance at 410 nm was measured using a plate reader (Biotek Synergy2, Winooski, Vt., USA). […]

Assay [2] has as its system aortic ring angiogenic sprouts. Nature of the assay: Ex vivo mouse aortic ring angiogenesis assay. Conditions: 100 pM Norleual, four days, EGM-2. Here is the method:
FIG. 16 depicts inhibition of angiogenesis by Norleual (Compound 2, SEQ ID NO:43) in the mouse aortic ring assay. Rings were incubated in EGM-2 media (Cambrex) with (n=8) or without (n=6) 100 pM Norleual for four days. Digital photos of the rings were taken on day four. FIG. 16A: Quantification of aortic ring angiogenesis. Areas covered by angiogenic sprouts were quantified from day four ring photos, control (−) and Norelual treated (+) (p-value=0.012* and error bars indicate ±SEM). FIG. 16B: HUVECs were treated for 5 minutes with HGF and/or Norleual at indicated concentrations. Lysates were IP with anti-c-Met and IB with anti-c-Met or Gab1.
Aortic ring assay. 48-well plates were coated with Growth Factor Reduced Matrigel (BD Biosciences, San Jose, Calif., USA, thick gel method). Under microscopic dissection, the thoracic aorta of a 6 week-old C57 mouse was cut into 0.5 mm sections, washed in PBS, and placed in the Matrigel-coated wells. […] Photos were taken and angiogenic area was measured using Image J (Image Processing and Data Analysis in Java, available from NIH, Bethesda, Md.). […]
See Example 1 for Materials and Methods. Angiogenesis was evaluated with the ex vivo mouse aortic ring assay in the presence and absence of Norleual. […]

Assay [3] relates to HEK293 cell membranes (c-Met system). Nature of the assay: 125I-Norleual binding assay, HEK293 cell membranes. Also noted: species or system human. Conditions: 1.5 nM HGF or 1 μM Norleual. Here is the method: FIG. 3C: ^125I-Norleual was bound to HEK membranes in the presence or absence of 1.5 nM HGF (n=8) or 1 μM Norleual (n=6). Total binding is reported as percent control (n=10), (*p<0.001). Error bars indicate±SD. […] Error bars indicate SD and data points were performed in duplicate.
^125I-Norleual binding assay. HEK293 cells were grown to confluency in DMEM fortified with 10% FBS. Media was aspirated and cells were washed twice with ice-cold PBS. Cells were lysed with hypotonic buffer and homogenized as described by Zhang et al. (1999, J. Pharmacol. Exp. Ther. 289: 1075-1083; 2003 J. Cell Biochem. 88: 408-417). 450 μg of membrane protein was incubated with 1.5 nM ^125I-Norleual with or without Norleual or HGF in a total volume of 250 μl PBS, 0.1% BSA. Tubes were spun and binding was carried out for 60 minutes at RT. Bound and free ligands were separated by vacuum filtration using (Brandel Cell Harvester, Schleicher & Schull, Keene, N.H., USA) 32 glass filters. Radioactivity retained by the filters was measured using a gamma counter. […] Data analysis was preformed using Prism software (GraphicPad) per the supplier's recommendations.
Materials and methods were as described in Example 1. In separate tests of unlabeled competitors, both Norleual and HGF competed with ^125I-HGF for high affinity binding to mouse liver plasma membranes (FIGS. 2A, 2B). […]

For “Nle-Tyr-Leu-ψ-His-Pro-Phe ([Nle]YLHPF; also: reduced peptide bond psi(CH2NH2) between Leu and His) [Norleual]”, in assay [1], the “Change in gene expression versus control: Adamts 1, CD36, Connective tissue growth factor, PECAM 1, Cxcl 4, restin, Ccl 2, TNF-α, VEGF-α, VEGF-β” value is listed as “at least five-fold”. The B16-F10 lung metastasis result in the assay with B16-F10 melanoma cells is “dramatically inhibited”. Moreover, the “Angiogenic growth of aortic rings” value in assay [2] is recorded as “significantly attenuated”. Besides, the “Competition for 125I-Norleual specific binding to HEK293 cell membranes” value in assay [3] is reported as “competed”.
